One data set has as its system Maize coleoptiles. In words: Effect of FB1 and AP1 on maize coleoptiles. The data set is classed as cell-based. Set-up: key to Injury of maize coleoptiles: + = brown necrotic discoloration of coleoptile; − = no symptoms (same as water control). The note with it: for Injury of maize coleoptiles: 2 days dark 28° C., then 3 days light. The procedure: Maize coleoptiles from 4 day dark-grown germinated maize seeds were excised above the growing point and placed in 96-well microtiter plates in the presence of 60 microliters of sterile distilled water containing FB1 or AP1 at approximately equimolar concentrations of 1.5, 0.5, 0.15, 0.05, 0.015, 0.005, 0.0015, or 0.0005 millimolar, along with water controls. After 2 days in the dark at 28° C. the coleoptiles were placed in the light and incubated another 3 days.

The test system of the next data set is BMS cells. In words: Effect of FB1 and AP1 on maize tissue cultured cells (Black Mexican Sweet, BMS). The data set is classed as cell-based. The note with it: for concentration at which growth of BMS cells was inhibited: 1 week, liquid culture, 96-well plates. The procedure:
FB1 or AP1 at various concentrations was added to suspensions of BMS cells growing in liquid culture medium in 96-well polystyrene plates. After 1 week the cell density in wells was observed under low power magnification and growth of toxin-treated wells was compared to control wells that received water. […] This represents an approximate 100-fold difference in toxicity to maize tissue cultured cells. […] AP1 was not tested in that study, however.

Another data set has as its system APAO. The data set is described as follows: APAO activity of crude cell-free extract, TLC. The data set is classed as biochemical, Exophiala spinifera. As for the experimental part:
For analysis of APAO activity, an alternative method was used. Equal volumes of sample and ^14C-AP1 (1 mg/ml, pH 8, 50 mM sodium phosphate) were incubated at room temperature for one to six days. Analytical thin-layer chromatography was then carried out on C60 HPK silica gel plates (Whatman #4807-700; 10×10 cm; 0.2 mm thick). After application of from 0.1 to 2 μl of aqueous sample, the plates were air-dried and developed in CHCl3:MeOH:CH3COOH:H20 (55:36:8:1). Plates were then air dried, and exposed to Phosphorlmager screen (Molecular Dynamics) or autoradiographic film. A Storm™ Phosphorlmager (Molecular Dynamics) was used to scan the image produced on the screen.
A cell-free extract that contains the deaminase activity was obtained by subjecting substrate-induced Exophiala spinifera cells to disruption using a Bead Beater™ in 50 mM Na-phosphate, pH 8.0, and recovering the cell-free supernatant by centrifugation and 0.45 micron filtration. Catabolic activity is assayed by incubating extracts with AP1 (hydrolyzed fumonisin BI backbone) or “^4C-labelled AP1 with the extract and evaluating by TLC on C18 or C60 silica. […] Other amine-containing substrates were tested for modification by the crude extract. […] Preparative amounts of the product, named 2-OP, have also been purified and analyzed by C13 nmr.

The next data set has as its system APAO enzyme. The data set is classed as biochemical, Exophiala spinifera. The note with it: for RATE: 1 mM substrate, pH 8.0, room temperature. As for the experimental part: The following assay was used to determine the substrate specificity of the APAO enzyme. […] The APAO enzyme was recombinant enzyme produced,as GST fusion in E. coli, purified over a glutathione affinity column and cleaved with thrombin to remove the GST. All components were mixed at room temperature. The initial rate was determined in a spectrophotometer at 572 nm over one minute by absorbance units/second (BLANK). Ten microliters of APAO at 70 ug/ml was added and mixed. The initial rate was again determined at 572 nm over one minute in absorbance units/second (SAMPLE). The rates were converted to absorbance units/minute. The BLANK value was subtracted from the SAMPLE value. The absorbance units were converted to μM H2O2 wherein 1 μM H2O2 equals 0.138 absorbance units at pH 8.0.

Another data set deals with maize callus. The note with it: solid medium; cited from earlier work.
Another data set deals with Lemna tissues. The note with it: AP1 versus FB1; cited from earlier work.
The next data set deals with tomato. The note with it: cited from earlier work.
The nature of data set [1]: Mutated APAO lysates from E coli, Amplex Red assay, substrate AP1. The data set is classed as biochemical. The procedure: The following assay was used to determine the substrate specificity of the APAO enzyme. Reaction mix: 436 μl of 200 mM Na-phosphate, pH8.0; 50 μl substrate (10 mM); 2 μl Amplex Red (1 mg in 200 μl DMSO); and 2 μof Peroxidase (5000 U/ml). The APAO enzyme was recombinant enzyme produced,as GST fusion in E. coli, purified over a glutathione affinity column and cleaved with thrombin to remove the GST. All components were mixed at room temperature. The initial rate was determined in a spectrophotometer at 572 nm over one minute by absorbance units/second (BLANK). Ten microliters of APAO at 70 ug/ml was added and mixed. The initial rate was again determined at 572 nm over one minute in absorbance units/second (SAMPLE). The rates were converted to absorbance units/minute. The BLANK value was subtracted from the SAMPLE value. The absorbance units were converted to μM H2O2 wherein 1 μM H2O2 equals 0.138 absorbance units at pH 8.0.
The APAO molecules mutated at specific cysteines were tested in a bacterial expression system using the previously described Amplex Red assay. The results can be seen in the table below entitled “Cys(−) APAO lysates from E. coli.” The mutated APAO molecules can then be tested in maize, linked to a signal peptide, as previously described. Either one of the cysteines or two or three together could be mutated to serines without any measured loss in APAO enzyme activity of the E coli-expressed enzyme. […] The mutated versions of APAO operably linked to a signal sequence, which retain function when expressed as recombinant fusion proteins in E. coli may also provide additional stability or foldability when expressed in plants or other secretion expression systems.

Data set [2] can be described thus: Mutated APAO lysates from E coli, Amplex Red assay, substrate FB1. The class given is biochemical.
Data set [3] in a line: Mutated APAO lysates from E coli, Amplex Red assay, substrate AP1. Particulars: Glyc(−) APAO lysates from E coli. The class given is biochemical.
[4] abbreviates: Cys(−) APAO lysates from E coli.
Setting [5] is: Triple Cys(−) APAO lysates from E coli.
The mark [6] stands for this setting: Glyc(−) APAO lysates from E coli.

With `CCCC[C@@H](C)[C@@H](OC(=O)C[C@@H](CC(=O)O)C(=O)O)[C@H](C[C@@H](C)C[C@H](O)CCCC[C@@H](O)C[C@H](O)[C@H](C)N)OC(=O)C[C@@H](CC(=O)O)C(=O)O` [FB1, fumonisin B1], the “Injury of maize coleoptiles” value with Maize coleoptiles (1.5 mM) is on record as “+”; with Maize coleoptiles (.0005 mM) it was “−”; with Maize coleoptiles (.0015 mM), “−”; in the data set with Maize coleoptiles (.005 mM), “−”; in the data set with Maize coleoptiles (.05 mM), “+”; in the data set with Maize coleoptiles (.15 mM) it was “+”. The “Injury of maize coleoptiles” value in the data set on Maize coleoptiles (.5 mM) is “+”. Also, the “concentration at which growth of BMS cells was inhibited” value with BMS cells came out at 400 nM. In addition, in the data set with APAO (crude cell-free extract of induced Exophiala spinifera, TLC), the “modification by the crude extract” value is reported as “not modified”. In the data set on APAO enzyme, the RATE is recorded as 0.1429 μM H2O2/min. Further, in the data set on maize callus, the “concentration giving significant inhibition of maize callus” value is 1400 nM.
In the case of `CCCC[C@@H](C)[C@@H](O)[C@@H](O)C[C@@H](C)C[C@H](O)CCCC[C@@H](O)C[C@H](O)[C@H](C)N` [AP1], the “Injury of maize coleoptiles” value with Maize coleoptiles (1.5 mM) is listed as “+”; with Maize coleoptiles (.0005 mM), “−”; in the data set with Maize coleoptiles (.0015 mM) it was “−”; in the data set on Maize coleoptiles (.005 mM), “−”; with Maize coleoptiles (.015 mM), “−”; in the data set with Maize coleoptiles (.05 mM), “−”. The “Injury of maize coleoptiles” value in the data set with Maize coleoptiles (.15 mM) and in the data set with Maize coleoptiles (.5 mM) was “−” in each case. The “difference in toxicity between FB1 and AP1 to maize coleoptiles” value in the data set on Maize coleoptiles (AP1 versus FB1) is not below 30 fold. Further, the “concentration at which growth of BMS cells was inhibited” value with BMS cells was found to be 40000 nM. For the same molecule, the “difference in toxicity to maize tissue cultured cells” value in the data set with BMS cells (AP1 versus FB1) is on record as approximately 100 fold. Moreover, the “time to complete conversion to 2-OP” value in the data set on APAO (pH 9) came to 30 min. For the same molecule, the RATE in the data set with APAO enzyme was found to be 0.8876 μM H2O2/min. Also, the “less toxic than FB1 in Lemna tissues” value in the data set with Lemna tissues is listed as “approx. 40 fold”. Also, in the data set on tomato, the “reduction in toxicity to tomato by AP1 versus FB1” value is approximately 100 fold.

B1: APAO: amino polyol amine oxidase from Exophiala spinifera, ATCC 74269 (SEQ ID NO: 23) (protein, listed as Exophiala spinifera)
chain: MALAPSYINPPNVASPAGYSHVGVGPDGGRYVTIAGQIGQDASGVTDPAYEKQVAQAFANLRACLAAVGATSNDVTKLNYYIVDYAPSKLTAIGDGLKATFALDRLPPCTLVPVSALSSPEYLFEVDATALVPGHTTPDNVADVVVVGAGLSGLETARKVQAAGLSCLVLEAMDRVGGKTLSVQSGPGRTTINDLGAAWINDSNQSEVSRLFERFHLEGELQRTTGNSIHQAQDGTTTTAPYGDSLLSEEVASALAELLPVWSQLIEEHSLQDLKASPQAKRLDSVSFAHYCEKELNLPAVLGVANQITRALLGVEAHEISMLFLTDYIKSATGLSNIFSDKKDGGQYMRCKTGMQSICHAMSKELVPGSVHLNTPVAEIEQSASGCTVRSASGAVFRSKKVVVSLPTTLYPTLTFSPPLPAEKQALAENSILGYYSKIVFVWDKPWWREQGFSGVLQSSCDPISFARDTSIDVDRQWSITCFMVGDPGRKWSQQSKQVRQKSVWDQLRAAYENAGAQVPEPANVLEIEWSKQQYFQGAPSAVYGLNDLITLGSALRTPFKSVHFVGTETSLVWKGYMEGAIRSGQRGAAEVVASLVPAA
In the case of B1, the “AP1 catabolic activity after heating” value in the data set with APAO (following 30 min. at 65° C. or 100° C.) is recorded as “no AP1 catabolic activity remained”. The “activity on intact FB1” value in the data set with APAO (partially purified APAO enzyme from Exophiala spinifera) is on record as “little or no activity”. For the same molecule, in the data set on APAO enzyme (recombinant APAO enzyme expressed in E. coli), the “activity on intact FB1 and other B-series fumonisins” value is given as “significant but reduced activity”. Also, the Conclusion result in data set [1] (setting [4]) was “Active (wild type)”; in data set [1] (setting [5]), “Active (wild type)”; in [2] (setting [4]) it was “Slightly active (wt)”; in data set [2] (setting [6]), “Slightly active (wt)”; in data set [2] (setting [5]), “Slightly active (wt)”; in data set [3] it was “Active (wild type)”. Also, the “M H2O2/min” value stood at 2.14 μM H2O2/min in [1] (setting [4]); 1.16 μM H2O2/min in data set [1] (setting [5]); 0.11 μM H2O2/min in data set [2] (setting [4]); 0.12 μM H2O2/min in data set [2] (setting [6]); 0.27 μM H2O2/min in [2] (setting [5]); 1.92 μM H2O2/min in [3].

Source of the values: patent publication US6943279B1, “Amino polyol amine oxidase polynucleotides and related polypeptides and methods of use” (priority 1999, dated 2005).
